Measured values from PMC10831786 (Virus Research, 2024).
Where “and” joins values, the source holds several entries; their conditions need not be identical. Identical values can stand only once. Counter-ions that a name gives are not always drawn. Like-named read-outs stand apart in the source and are kept apart here.

What was measured:
[1] = molecular target: protein synthesis in rabbit reticulocyte lysate; assay: Inhibition of protein synthesis in rabbit reticulocyte lysates (luciferase mRNA translation); type: biochemical
Method: The TnT® Quick Coupled Transcription/Translation System from Promega (WI, USA; L1170) was used to evaluate inhibitory effects of ipecac alkaloids and cycloheximide on protein synthesis. Assay conditions were employed as recommended by the manufacturer. Briefly, reactions (20 μl) contained 80 % TNT Quick master mix, 20 µM methionine, 40 ng/µL luciferase RNA (Promega; L4561), and test chemicals. Samples were incubated at 30 °C for 90 min and diluted 10-fold with PBS. An aliquot (2 μl) was mixed with 20 μl of luciferase assay reagent (Promega; E1500) and luminescence was measured with a Turner Designs luminometer (model TD-20/20).

[2] = test system: HCoV-OC43; assay: Antiviral activity against HCoV-OC43 in Vero E6 cells (RT-qPCR of N-gene); type: cell-based
Method: Vero E6 cells (∼5 × 10^4 cells/cm^2 in 24-well plates) were infected with […] at MOI of 20 genomes per cell in 2 % FBS-EMEM at 33 °C, 5 % CO2 with gently mixing for 2 h. Infection medium was removed, cells were washed with fresh medium followed by the addition of compounds at indicated concentrations in 2 % FBS-EMEM. After 72 h, 100 µL of medium was collected and stored at −80 °C for viral RNA isolation and RT-qPCR analysis as detailed below. Drugs were added to the medium prior to and after viral absorption for comparison.
HCoV-OC43 RNA was isolated from 100 µL of medium using Quick-RNA Viral Kit-DX (Zymo Research, CA, USA; R1035). The relative amount of viral genomic RNA was determined with Luna Universal One-Step RT-qPCR Kit (New England Biolabs, MA, USA; E3005). […]
RT-qPCR cycles were set for 20 min at 55 °C, 1 min at 95 °C followed by 45 cycles of 95 °C for 10 s, 48 °C for 30 s and 60 °C for 1 min. The threshold cycle (Ct) for each sample was determined using the Opticon Monitor 3 Program (BioRad). Drug effects on viral propagation were evaluated assuming that a difference of one cycle corresponds to a two-fold difference in the number of copies of viral RNA. Ct values obtained for drug-free samples were considered as 100 % viral propagation.

[3] = MTS assay, growth inhibition and toxicity in non-infected Vero E6 cells; type: cell-based, African green monkey; conditions: African green monkey, non-infected Vero E6 cells, MTS, 72 h; read-out: Fifty percent effect (CC50) in non-infected Vero E6
Method: (§1) Detailed methods are provided in Supplementary Information.
(§2) Vero E6 and BEC-hACE2 cells were grown to 70-80% density in their maintenance media and exposed to various concentrations of ipecac alkaloids (0.0125 – 200 µM) under standard culture conditions for 48-72 h and 24 h, respectively. Controls with varying amounts of DMSO and no DMSO were included also. Vero E6 cells were incubated with drugs in 2% FBS-EMEM, while BEC-HACE2 cells were grown and treated in complete PCS-300-03 medium with supplements. Similar treatments were also conducted using fully confluent non-growing BEC-hACE2 cells. At the end of the exposure period, MTS reagent (Promega G3580) was added at 1/5th of the medium volume and color was allowed to develop by incubation of the plates for an hour in a cell culture incubator. To stop reactions, SDS was added to a final concentration of 2% and optical density of samples was measured at 450 or 490 nm, depending on the model of spectrophotometer (PharmaciaBiotech, NJ, USA; UV spectrophotometer, model Ultrospec2000) or plate reader (Molecular Devices, CA, USA; model Filter Max F5 Multi-mode microplate reader) available at the time of experiment.

[4] = test system: BEC-hACE2 cells; assay: MTS assay, growth inhibition and toxicity in non-infected BEC-hACE2 cells; type: cell-based, human; conditions: for MTS, TGI (beginning of the plateau): BEC-hACE2, 24 h
Method: as §1, §2

[5] = test system: BEC-hACE2 cells; assay: Sulforhodamine B (SRB) assay in non-infected BEC-hACE2 cells; type: cell-based, human; conditions: for SRB, TGI / GI50: BEC-hACE2, 24 h; for GI50: read-out: SRB, GI50
Method: as §1
This method has been used by the National Cancer Institute to evaluate drug candidates for their activities as growth inhibitors and toxins in human cancer cell lines. NCI’s protocols for SRB assay were strictly followed^81, 82. On the day of exposure (Day 0), several wells of untreated cells were fixed by addition of trichloroacetic acid (TCA, 10% V/V) and incubated for one hour at 4°C. The supernatant was discarded, wells washed five times with tap water and then air-dried. Samples were stored at room temperature until cells exposed to ipecac alkaloids or DMSO for 24 h were fixed in a similar manner. For color development, 500 µl of 0.4% SRB reagent prepared in 1% acetic acid was added to fixed cells and samples were incubated at room temperature for 15 min with gentle rocking. Unbound dye was removed by five washes with 1% acetic acid and plates were air-dried. Trizma base (10 mM) was used to dissolve the stain and absorbance was measured at 515 nm using a spectrophotometer. By comparing absorption values obtained at day 0 to the signal at day 1, with and without drugs, this protocol permits distinguishing growth inhibition from toxicity of the test compounds.

[6] = molecular target: T1, l-type calcium current ICaL (Homo sapiens, UniProt Q13936); assay: Patch clamp recording of ICaL in human iPSC-derived cardiomyocytes; type: cell-based
T1 construct: host or cells: human iPSC-derived ventricular cardiomyocytes
Method: iPSC cells (Axol Bioscience Ltd, FL, USA) were plated at a density of 25,000 cells/cm^2 on coverslips coated with 1x Axol Fibronectin Coating Solution in Axol Plating Medium (Axol Cardiomyocyte Maintenance Medium, 10 % fetal bovine serum and 10 μM Y-27,632 2HCl) according to manufacturer's instructions. The next day the medium was changed to Axol Cardiomyocyte Maintenance Medium. Cells were maintained at 5 % CO2, 37 °C in humidified conditions. Medium was replaced every other day.
An Axopatch −1D (Axon Instruments: Molecular Devices LLC, CA, USA) amplifier and […] were used for recording and data analysis. Patch electrode resistance was set at 4–6 MΩ and room temperature was 22 ± 1 °C. During the recording, cells were held at −50 mV, then, the voltage was gradually raised to +60 mV in 10 mV increments with 300 ms pulse. The bath solution included the following components: 137 mM TEA-Cl, 1 mM MgCl2, 2 mM CaCl2, 10 mM HEPES, 10 mM glucose (pH 7.4, adjusted with TEA-OH). For the pipette the solution contained: 111 mM CsCl, 20 mM TEA-Cl, 10 mM glucose, 10 mM HEPES, 14 mM EGTA, 5 mM MgATP (pH 7.2, adjusted with CsOH).
D represents the concentrations of a given drug.

[7] = molecular target: sodium channel; set-up: method as in Lemmens-Gruber et al., 1997; conditions: ref Lemmens-Gruber et al., 1997; read-out: Kd, sodium channel reduction; cited from earlier work
[8] = Betacoronavirus 1, OC43, Vero C1008, 72 h, Vero E6, 72 h, read-out: Antiviral IC50
[9] = Betacoronavirus 1, OC43, Vero C1008, Vero E6, drug added after viral absorption, 72 hpi, read-out: Antiviral IC50

T1 sequence (Q13936 whole entry): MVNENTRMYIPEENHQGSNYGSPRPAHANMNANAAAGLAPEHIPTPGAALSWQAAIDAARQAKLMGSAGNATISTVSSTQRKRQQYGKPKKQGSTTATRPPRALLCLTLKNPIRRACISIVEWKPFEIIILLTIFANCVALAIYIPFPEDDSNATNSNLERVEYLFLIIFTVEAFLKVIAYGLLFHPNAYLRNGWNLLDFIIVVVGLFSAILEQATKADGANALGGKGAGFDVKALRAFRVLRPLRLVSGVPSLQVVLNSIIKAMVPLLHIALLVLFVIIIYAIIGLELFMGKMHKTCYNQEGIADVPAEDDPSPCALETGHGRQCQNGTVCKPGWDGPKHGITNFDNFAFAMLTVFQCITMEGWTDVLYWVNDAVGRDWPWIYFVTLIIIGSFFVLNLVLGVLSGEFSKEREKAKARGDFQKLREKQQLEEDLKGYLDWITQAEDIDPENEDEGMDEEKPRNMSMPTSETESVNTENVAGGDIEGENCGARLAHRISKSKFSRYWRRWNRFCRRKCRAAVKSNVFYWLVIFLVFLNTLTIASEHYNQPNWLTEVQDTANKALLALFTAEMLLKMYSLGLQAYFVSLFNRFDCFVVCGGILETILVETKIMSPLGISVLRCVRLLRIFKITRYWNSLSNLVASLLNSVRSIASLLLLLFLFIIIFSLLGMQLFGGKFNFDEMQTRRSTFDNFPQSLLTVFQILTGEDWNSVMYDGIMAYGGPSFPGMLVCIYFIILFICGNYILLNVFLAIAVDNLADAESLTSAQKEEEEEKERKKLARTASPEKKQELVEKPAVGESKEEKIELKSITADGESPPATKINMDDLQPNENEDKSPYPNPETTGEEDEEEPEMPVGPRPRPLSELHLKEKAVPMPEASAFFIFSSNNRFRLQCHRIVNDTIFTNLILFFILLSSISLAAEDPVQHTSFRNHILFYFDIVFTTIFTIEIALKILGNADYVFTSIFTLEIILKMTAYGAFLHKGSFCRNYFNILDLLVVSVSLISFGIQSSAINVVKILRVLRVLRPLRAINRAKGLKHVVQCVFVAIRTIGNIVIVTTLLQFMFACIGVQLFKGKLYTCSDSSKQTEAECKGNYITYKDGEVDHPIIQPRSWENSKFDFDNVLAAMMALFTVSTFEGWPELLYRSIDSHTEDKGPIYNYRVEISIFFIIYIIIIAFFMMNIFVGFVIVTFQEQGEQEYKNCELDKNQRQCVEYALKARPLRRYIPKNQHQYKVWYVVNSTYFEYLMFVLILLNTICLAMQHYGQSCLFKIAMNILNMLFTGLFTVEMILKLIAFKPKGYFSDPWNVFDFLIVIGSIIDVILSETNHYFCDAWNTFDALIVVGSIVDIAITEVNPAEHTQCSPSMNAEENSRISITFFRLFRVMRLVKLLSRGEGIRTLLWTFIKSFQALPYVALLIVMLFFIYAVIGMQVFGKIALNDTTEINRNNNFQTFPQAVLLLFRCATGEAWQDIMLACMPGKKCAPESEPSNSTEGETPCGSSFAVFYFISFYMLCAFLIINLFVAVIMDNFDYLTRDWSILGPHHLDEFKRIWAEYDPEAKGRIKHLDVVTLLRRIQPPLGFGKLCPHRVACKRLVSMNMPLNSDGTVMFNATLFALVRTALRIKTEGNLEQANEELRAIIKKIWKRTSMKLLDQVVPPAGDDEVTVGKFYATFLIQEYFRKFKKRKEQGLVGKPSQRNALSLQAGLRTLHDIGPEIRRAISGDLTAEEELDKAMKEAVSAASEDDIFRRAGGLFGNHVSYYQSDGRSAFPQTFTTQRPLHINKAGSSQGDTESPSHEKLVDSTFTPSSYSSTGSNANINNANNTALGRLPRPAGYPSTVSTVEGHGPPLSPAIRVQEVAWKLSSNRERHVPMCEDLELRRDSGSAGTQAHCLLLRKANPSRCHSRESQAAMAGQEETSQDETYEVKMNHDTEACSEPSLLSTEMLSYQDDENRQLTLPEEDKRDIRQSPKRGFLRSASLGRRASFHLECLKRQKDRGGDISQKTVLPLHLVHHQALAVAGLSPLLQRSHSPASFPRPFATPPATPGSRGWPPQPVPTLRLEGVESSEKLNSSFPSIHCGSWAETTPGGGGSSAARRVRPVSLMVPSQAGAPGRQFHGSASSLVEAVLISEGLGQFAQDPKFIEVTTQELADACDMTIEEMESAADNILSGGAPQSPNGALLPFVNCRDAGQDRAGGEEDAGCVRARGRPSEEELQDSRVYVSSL
T1 sequence (P54289 25-956, further chain): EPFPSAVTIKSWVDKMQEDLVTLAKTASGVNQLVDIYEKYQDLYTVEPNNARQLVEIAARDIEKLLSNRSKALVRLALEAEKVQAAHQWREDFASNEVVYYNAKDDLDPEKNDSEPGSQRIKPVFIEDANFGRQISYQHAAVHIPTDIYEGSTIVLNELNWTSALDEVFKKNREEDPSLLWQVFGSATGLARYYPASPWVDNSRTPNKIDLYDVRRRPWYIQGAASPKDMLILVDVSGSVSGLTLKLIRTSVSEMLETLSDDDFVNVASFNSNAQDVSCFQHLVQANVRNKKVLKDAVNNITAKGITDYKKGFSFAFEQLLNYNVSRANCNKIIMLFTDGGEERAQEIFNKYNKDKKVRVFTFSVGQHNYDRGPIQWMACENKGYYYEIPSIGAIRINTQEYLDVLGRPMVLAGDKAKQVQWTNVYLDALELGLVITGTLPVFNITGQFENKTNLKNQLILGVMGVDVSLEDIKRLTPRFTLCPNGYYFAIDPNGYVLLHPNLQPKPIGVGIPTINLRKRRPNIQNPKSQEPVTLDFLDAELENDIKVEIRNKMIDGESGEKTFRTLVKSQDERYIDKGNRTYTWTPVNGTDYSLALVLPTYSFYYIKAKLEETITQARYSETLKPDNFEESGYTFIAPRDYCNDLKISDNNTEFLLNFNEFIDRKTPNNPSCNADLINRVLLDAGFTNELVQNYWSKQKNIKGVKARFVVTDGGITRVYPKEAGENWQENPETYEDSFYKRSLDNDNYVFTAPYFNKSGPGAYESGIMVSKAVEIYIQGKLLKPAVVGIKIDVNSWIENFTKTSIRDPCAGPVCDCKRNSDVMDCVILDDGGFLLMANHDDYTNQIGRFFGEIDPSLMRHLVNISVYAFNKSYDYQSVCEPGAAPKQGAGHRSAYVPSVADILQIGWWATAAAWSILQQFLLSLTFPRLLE
T1 sequence (P54289 957-1103, further chain): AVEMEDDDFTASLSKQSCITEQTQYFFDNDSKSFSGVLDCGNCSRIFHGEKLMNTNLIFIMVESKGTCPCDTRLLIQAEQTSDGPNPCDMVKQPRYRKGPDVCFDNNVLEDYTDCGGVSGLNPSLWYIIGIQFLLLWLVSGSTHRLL
T1 sequence (Q08289 whole entry, further chain): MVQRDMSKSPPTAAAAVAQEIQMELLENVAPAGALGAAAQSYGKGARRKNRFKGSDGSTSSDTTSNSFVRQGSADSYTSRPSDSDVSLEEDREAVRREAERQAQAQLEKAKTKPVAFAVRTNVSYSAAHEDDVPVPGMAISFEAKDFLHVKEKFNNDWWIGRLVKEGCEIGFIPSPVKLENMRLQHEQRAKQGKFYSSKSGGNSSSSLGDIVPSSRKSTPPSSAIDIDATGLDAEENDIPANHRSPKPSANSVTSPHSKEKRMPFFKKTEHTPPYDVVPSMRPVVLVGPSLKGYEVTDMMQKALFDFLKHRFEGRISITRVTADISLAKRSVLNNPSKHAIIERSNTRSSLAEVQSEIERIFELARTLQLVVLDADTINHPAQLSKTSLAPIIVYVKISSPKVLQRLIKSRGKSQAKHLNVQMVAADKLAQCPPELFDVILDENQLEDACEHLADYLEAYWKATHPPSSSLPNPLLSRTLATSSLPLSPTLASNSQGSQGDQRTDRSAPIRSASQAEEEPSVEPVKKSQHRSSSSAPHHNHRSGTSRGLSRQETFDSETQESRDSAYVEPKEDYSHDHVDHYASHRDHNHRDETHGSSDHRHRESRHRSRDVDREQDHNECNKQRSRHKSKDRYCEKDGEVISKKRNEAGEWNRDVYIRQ

**Q.** With `CC[C@H]1CN2CCc3cc(OC)c(OC)cc3[C@@H]2C[C@@H]1C[C@H]1NCCc2cc(OC)c(OC)cc21` [Emetine, 2H-Benzoaquinolizine, 3-ethyl-1,3,4,6,7,11b-hexahydro-9,10-dimethoxy-2-(1R)-1,2,3,4-tetrahydro-6,7-dimethoxy-1-isoquinolinylmethyl-, dihydrochloride, (2S,3R,11bS)-, reference compound] as the molecule, how does the IC50 ([1]; luciferase mRNA, 30 °C, 90 min) read?
**A.** 1200 nM and 1210 nM

**Q.** And the IC50 [2, 8]?
**A.** 40 to 60 nM

**Q.** And the IC50 ([2]; Betacoronavirus 1, OC43, Vero C1008, Vero E6, drug 1 h before viral absorption and 72 h after infection (1 hbi/72 hpi), read-out: Antiviral IC50)?
**A.** 44 ± 2 nM

**Q.** What about the IC50 [2, 9] of the same molecule?
**A.** 40 ± 2 nM

**Q.** And the CC50 at 72 h [3]?
**A.** 1520 nM

**Q.** And the “MTS, TGI (beginning of the plateau)” value [4]?
**A.** 125 nM

**Q.** And the “MTS, nature of the effect” value ([4]; BEC-hACE2, at 100 μM)?
**A.** cytostatic

**Q.** What about the “SRB, TGI” value [5] of the same molecule?
**A.** 250 to 500 nM

**Q.** What about the “SRB, TGI” value ([5]; listed as EMT) of the same molecule?
**A.** ∼ 0.25–0.5 μM

**Q.** What about the GI50 ([5]; Homo sapiens, 24 h) of the same molecule?
**A.** 110 nM

**Q.** What about the GI50 ([5]; listed as EMT) of the same molecule?
**A.** 112 ± 22 nM

**Q.** And the “Estimated reduction in ICaL” value ([6]; human cardiomyocytes, assuming 25 µM)?
**A.** approximately one-third

**Q.** What about the Kd [7] of the same molecule?
**A.** 15000 nM

**Q.** For `CC[C@H]1CN2CCc3cc(OC)c(OC)cc3[C@@H]2C[C@@H]1C[C@@H]1NCCc2cc(OC)c(OC)cc21.Cl.Cl` [Isoemetine, 2H-Benzoaquinolizine, 3-ethyl-1,3,4,6,7,11b-hexahydro-9,10-dimethoxy-2-(1S)-1,2,3,4-tetrahydro-6,7-dimethoxy-1-isoquinolinylmethyl-, dihydrochloride, (2S,3R,11bS)-], which “Inhibitory effects on translation in rabbit reticulocyte lysate” value ([1]; concentration range 0.1 - 100 μM) is on record?
**A.** no inhibitory effects

**Q.** What about the “IC50, protein synthesis inhibition in rabbit reticulocyte lysate” value ([1]; luciferase mRNA, 30 °C, 90 min) of the same molecule?
**A.** Not active

**Q.** And the IC50 ([2]; Vero E6, drug added after viral absorption, 72 hpi, read-out: Antiviral IC50)?
**A.** 1050 ± 213 nM

**Q.** And the “MTS, nature of the effect” value ([4]; BEC-hACE2, at 100 μM)?
**A.** cytotoxic

**Q.** And the “Concentrations at which cells are affected (MTS)” value ([4]; sub-confluent BEC-hACE2, 24 h)?
**A.** above 50 μM

**Q.** And the CC50 ([4]; sub-confluent BEC-hACE2, 24 h, read-out: MTS, CC50 (50 % effect))?
**A.** 100000 nM

**Q.** What about the “SRB, TGI” value [5] of the same molecule?
**A.** ~200000 nM

**Q.** And the GI50 [5]?
**A.** 19400 ± 3860 nM

**Q.** And the “SRB, nature of the effect” value ([5]; BEC-hACE2, at ∼200 μM)?
**A.** toxic

**Q.** Which results are given for `CCC1=C(C[C@H]2NCCc3cc(OC)c(OC)cc32)C[C@H]2c3cc(OC)c(OC)cc3CCN2C1` [DHE4, 4H-Benzo[a]quinolizine, 3-ethyl-1,6,7,11b-tetrahydro-9,10-dimethoxy-2-[[(1R)-1,2,3,4-tetrahydro-6,7-dimethoxy-1-isoquinolinyl]methyl]-, (11bS)-]?
**A.** IC50 ([1]; luciferase mRNA, 30 °C, 90 min): 1300 nM and 1330 nM; IC50 [2, 8]: 40 to 60 nM; IC50 [2, 9]: 63 ± 4 nM; IC50 ([2]; Betacoronavirus 1, OC43, Vero C1008, read-out: Antiviral IC50, Vero E6, drug 1 h before viral absorption and 72 h after infection (1 hbi/72 hpi)): 66 ± 6 nM; Selectivity index, (SI) CC50/IC50 ([2]; HCoV-OC43, Vero E6, 72 hpi): 52; MTS, TGI (beginning of the plateau) [4]: 125 nM; MTS, decrease ([4]; BEC-hACE2, at 100 μM): 40%; MTS, nature of the effect ([4]; BEC-hACE2, at 100 μM): cytostatic; MTS, CC50 (50 % effect) ([4]; sub-confluent BEC-hACE2, 24 h): Effect not reached; GI50 [5]: 62 ± 17 nM; GI50 ([5]; Homo sapiens, 24 h): 60 nM; Kd [6]: 60000 nM; Peak current density, ICaL ([6]; human IPSC-derived cardiomyocytes, DHE4 30 uM (control 13.5)): 8.9; Peak current density, ICaL, washout ([6]; human IPSC-derived cardiomyocytes, after washout of DHE4 30 uM (control 13.5)): 9.8
